Measurements taken from US7563774B2, “Combination of FBPase inhibitors and antidiabetic agents useful for the treatment of diabetes” (Metabasis Therapeutics, Inc., priority 2000, dated 2009).
Like-named read-outs stand apart in the source and are kept apart here.

What was measured:
[1] = tested on: Goto-Kakizaki rats; test: Acute combination treatment of an alpha glucosidase inhibitor and an FBPase inhibitor in Goto-Kakizaki rats (Example EE); format: in vivo, rat
Method: Goto-Kakizaki rats, an animal model of lean NIDDM, were purchased at 5 weeks of age from Charles River Japan, Inc. (Tokyo, Japan). The rats were maintained under standard vivarium conditions (24-26° C., 12-hour light cycle, 12-hour dark cycle) and received standard chow and water ad libitum. At 18 weeks of age, animals were divided into 4 groups (n=5/group). The treatment groups were control, Compound J, acarbose (Bayer, Japan), and the combination of Compound J and acarbose. All animals were given 1 g/kg of corn starch by oral gavage. […] Acarbose was administered orally at a dose of 1 mg/kg simultaneously with starch. Blood glucose levels in tail vein samples were measured by means of a Glucoloader-F, an automatic glucose analyzer, (A&T Co., Ltd., Tokyo, Japan).

[2] = tested on: Sprague-Dawley or Wistar rats; conditions: fasted rat, cited from earlier work; for ED50: 2 h
[3] = tested on: ZDF rats; test: Chronic combination treatment of an insulin secretagogue and an FBPase inhibitor in the ZDF rat (Example Y); format: in vivo; conditions: maximal doses, 2 to 12 weeks
Text: Male ZDF rats are purchased at 7 weeks of age from Genetics Models Inc. (Indianapolis, Ind.). […] At 8 weeks of age, animals are divided into 4 treatment groups (n=8/group). The treatments are control, Compound J, glyburide, and the combination of Compound J and glyburide. […] Other parameters measured by standard assays include: lactate, glycerol, alanine, triglycerides, free fatty acids, ketone bodies, hepatic and muscle glycogen, cholesterol, VLDL, HDL, hemoglobin Alc, body weight, food and water intake, as well as other measures of carbohydrate, lipid, and protein metabolism. […] Differences between groups are evaluated ANOVA using an appropriate post hoc test. Results are considered significant with p<0.05.

[4] = tested on: Zucker Diabetic Fatty rats; test: Acute combination treatment of an insulin secretagogue and Compound J in the ZDF rat (Example X); format: in vivo
Method: Experimental Protocol: Zucker Diabetic Fatty rats (9.5 weeks of age) were fasted for 5 hours starting at 8 am. The animals were then divided into 4 treatments groups with statistically similar baseline blood glucose levels. Test compounds were administered by oral gavage. The treatments were as shown below:
One hour after saline or drug administration, all animals received a simulated meal in the form of an oral bolus of glucose (1 g/kg). Blood glucose was then monitored at regular time intervals for 3 hours. Test compounds were prepared as suspensions in 0.1% carboxymethylcellulose. Blood samples were obtained by nicking of a tail vein. Blood glucose was measured by means of a HemoCue glucose analyzer according to the manufacturer's instructions (HemoCue Inc., Mission Viejo, Calif.). Results are expressed as the mean ± standard error of the mean for all values.

[5] = tested on: C57BL/KsJ db/db mice; test: Acute combination treatment of a biguanide and an FBPase inhibitor in db/db mice (Example DD); format: in vivo, mouse
Method: Male C57BL/KsJ db/db mice were purchased at 5 weeks of age from Clea Japan, Inc. (Tokyo, Japan). The mice were maintained under standard vivarium conditions (24-26° C., 12-hour light cycle, 12-hour dark cycle) and received standard chow and water ad libitum. […] The treatment groups were control, compound J , metformin, and the combination of compound J and metformin. […] Food was removed after treatment. Blood glucose levels in tail vein samples were measured by means of a Glucoloader-F, an automatic glucose analyzer, (A&T Co., Ltd., Tokyo, Japan).

[6] = tested on: C57BL/KsJ db/db mice; test: Acute combination treatment of insulin and Compound G in db/db mice (Example Z); format: in vivo, mouse
Method: Male C57BL/KsJ db/db mice were purchased at 5 weeks of age from Clea Japan, Inc. (Tokyo, Japan). The mice were maintained under standard vivarium conditions (24-26° C., 12-hour light cycle, 12-hour dark cycle) and received standard chow and water ad libitum. At 20 weeks of age, animals were divided into 4 groups (n=6/group). The treatment groups were control, compound G, insulin, and the combination of compound G and insulin. […] Insulin (human recombinant insulin, Penfill R300, Novo Nordisk, Denmark) was injected subcutaneously at a dose of 1.5 U/kg. Food was removed after treatment. Blood glucose levels in tail vein samples were measured by means of a Glucoloader-F, an automatic glucose analyzer, (A&T Co., Ltd., Tokyo, Japan).

[7] = tested on: C57BL/KsJ db/db mice; test: Chronic combination treatment of insulin and Compound G in db/db mice (Example AA); format: in vivo, mouse
Method: Male C57BL/KsJ db/db mice were purchased at 5 weeks of age from Clea Japan, Inc. (Tokyo, Japan). The mice were maintained under standard vivarium conditions (24-26° C., 12-hour light cycle, 12-hour dark cycle) and received standard chow and water ad libitum. At 16 weeks of age, animals were divided into 2 groups (n=5 or 9-10/group). Both groups were subcutaneously injected with human recombinant insulin (Penfill N300, Novo Nordisk, Denmark) on a daily basis to adjust plasma glucose levels to the target range of 250 to 300 mg/dL.

[8] = tested on: Goto-Kakizaki (GK) rats; test: Acute combination treatment of insulin and an FBPase inhibitor in the Goto-Kakizaki rat (Example CC); format: in vivo
Method: Male Goto-Kakizaki (GK) rats were purchased at 9 weeks of age from Charles River Japan, Inc. (Tokyo, Japan). The rats were maintained under standard vivarium conditions (24-26° C., 12-hour light cycle, 12-hour dark cycle) and received standard chow and water ad libitum. At 48 weeks of age, animals were divided into 4 groups (n=6/group) after an overnight fast. The treatment groups were control, Compound J, insulin, and combination of Compound J and insulin. […] Insulin (human recombinant insulin, Penfill N300, Novo Nordisk, Denmark) was subcutaneously injected at the dose of 1.5 U/kg. Blood glucose levels in tail vein samples were measured by means of a Glucoloader-F, an automatic glucose analyzer, (A&T Co., Ltd., Tokyo, Japan).

[9] = tested on: C57BL/KsJ db/db mice; test: Chronic combination treatment of insulin and Compound J in db/db mice (Example BB); format: in vivo, mouse
Method: Male C57BL/KsJ db/db mice were purchased at 5 weeks of age from Clea Japan, Inc. (Tokyo, Japan). […] At 19 weeks of age, animals were divided into 2 groups (n=6/group). […] Blood glucose levels in tail vein samples were measured by means of a Glucoloader-F, an automatic glucose analyzer, (A&T Co., Ltd., Tokyo, Japan).

C[C@H]1O[C@H](O[C@H]2[C@H](O)[C@@H](O)[C@@H](O[C@H]3[C@H](O)[C@@H](O)C(O)O[C@@H]3CO)O[C@@H]2CO)[C@H](O)[C@@H](O)[C@@H]1N[C@H]1C=C(CO)[C@@H](O)[C@H](O)[C@H]1O (some centres unmarked) [Acarbose, acarbose, reference compound]
Plasma Glucose, relative value (% of pre-treatment value) ([1]; 0 min): (129.4 +/− 2.8) % | Plasma Glucose ([1]; 0 min, Compound J 10 mg/kg p.o. at −60 min, acarbose 1 mg/kg p.o. with starch): 226.4 ± 5.3 mg/dL | Plasma Glucose ([1]; 30 min after starch): 243.8 ± 8.5 mg/dL | Plasma Glucose, relative value (% of pre-treatment value) ([1]; 30 min after starch): (139.5 +/− 6.0) % | Plasma Glucose ([1]; 60 min after starch): 247.2 ± 8.2 mg/dL | Plasma Glucose, relative value (% of pre-treatment value) ([1]; 60 min after starch): (141.3 +/− 4.9) % | Plasma Glucose ([1]; 120 min after starch): 209.4 ± 5.9 mg/dL | Plasma Glucose, relative value (% of pre-treatment value) ([1]; 120 min after starch): (119.9 +/− 4.9) % | Plasma Glucose ([1]; 240 min after starch): 164.2 ± 10.7 mg/dL | Plasma Glucose, relative value (% of pre-treatment value) ([1]; 240 min after starch): (93.5 +/− 4.7) % | Plasma Glucose, relative value (% of pre-treatment value) ([1]; −60 min): (100.0 +/− 0.0) % | Plasma Glucose ([1]; −60 min relative to starch 1 g/kg): 175.4 ± 5.9 mg/dL

CCC1=C(C)CN(C(=O)NCCc2ccc(S(=O)(=O)NC(=O)N[C@H]3CC[C@H](C)CC3)cc2)C1=O [Glimepiride]
ED50 [2]: 0.182 (2 h) mg/kg | Gluc low,% ([2]; Dose 0.1): −18%

COc1ccc(Cl)cc1C(=O)NCCc1ccc(S(=O)(=O)NC(=O)NC2CCCCC2)cc1 [Glyburide, glyburide, reference compound]
ED50 [2]: 0.255 (2 h) mg/kg | Gluc low,% ([2]; Dose 0.3): −25% | glycemic control [3]: becomes less and less effective over time | blood glucose after oral glucose load (FIG. 1) ([4]; glyburide 100 mg/kg, Compound J 300 mg/kg p.o.): suppressed the rise in blood glucose levels | AUC glucose ([4]; initial 4 hours post drug, glyburide 100 mg/kg, Compound J 300 mg/kg p.o., oral glucose 1 g/kg): 1324 ± 132 mg·h/dL | maximally efficacious dose ([4]; pilot studies, ZDF rat): 100 mg/kg

CN(C)C(=N)N=C(N)N [Metformin, metformin, reference compound]
Plasma Glucose, % of pretreatment value ([5]; after 2 hour): (67.7 +/− 1.9) % | Plasma Glucose ([5]; after 2 hour, Compound J and/or metformin 150 mg/kg p.o.): 347.0 ± 21.2 mg/dL | Plasma Glucose ([5]; after 4 hour): 346.5 ± 34.6 mg/dL | Plasma Glucose, % of pretreatment value ([5]; after 4 hour): (66.4 +/− 3.1) % | Plasma Glucose ([5]; after 6 hour): 348.3 ± 30.7 mg/dL | Plasma Glucose, % of pretreatment value ([5]; after 6 hour): (67.7 +/− 4.1) % | Plasma Glucose ([5]; after 8 hour): 407.8 ± 40.0 mg/dL | Plasma Glucose, % of pretreatment value ([5]; after 8 hour): (79.1 +/− 5.6) % | Plasma Glucose ([5]; before (0 hour)): 515.7 ± 37.0 mg/dL | Plasma Glucose, % of pretreatment value ([5]; before (0 hour)): (100.0 +/− 0.0) % | blood glucose lowering ([5]; db/db mice, acute): lowered blood glucose significantly relative to controls

CCOc1cc(CC(=O)N[C@@H](CC(C)C)c2ccccc2N2CCCCC2)ccc1C(=O)O [Repaglinide]
ED50 [2]: 0.01 (2 h) mg/kg | Gluc low,% ([2]; Dose 0.01): −21%

Insulin: human recombinant insulin, Penfill R300 (Example Z) or Penfill N300 (Examples AA, BB, CC), Novo Nordisk
Plasma Glucose, % of pretreatment values ([6]; after 1 hour): (54.2 +/− 4.1) % | Plasma Glucose ([6]; after 1 hour, Compound G 200 mg/kg p.o., insulin 1.5 U/kg s.c.): 410.8 ± 34.4 mg/dL | Plasma Glucose ([6]; after 4 hours): 540.3 ± 35.9 mg/dL | Plasma Glucose, % of pretreatment values ([6]; after 4 hours): (71.4 +/− 4.1) % | Plasma Glucose ([6]; after […]): 463.2 ± 40.2 mg/dL | Plasma Glucose, % of pretreatment values ([6]; after […]): (61.1 +/− 4.9) % | Plasma Glucose ([6]; before (0 hour)): 756.2 ± 15.2 mg/dL | Plasma Glucose, % of pretreatment values ([6]; before (0 hour)): (100.0 +/− 0.0) % | plasma glucose lowering ([6]; db/db mice, acute): improved hyperglycemia within 2.5 hours | Body Weight ([7]; after 1 week): 50.7 ± 1.5 g | Insulin Dose required to adjust plasma glucose to 250-300 mg/dL ([7]; after 1 week): 753 +/− 72 U/kg | Plasma Glucose ([7]; after 1 week, insulin adjusted daily, Compound G 0.2% food admixture): 297.1 ± 46.0 mg/dL | Body Weight ([7]; after 2 weeks): 54.3 ± 1.2 g | Insulin Dose required to adjust plasma glucose to 250-300 mg/dL ([7]; after 2 weeks): 492 +/− 68 U/kg | Plasma Glucose ([7]; after 2 weeks): 375.6 ± 53.5 mg/dL | Body Weight ([7]; after 3 weeks): 57.4 ± 1.6 g | Insulin Dose required to adjust plasma glucose to 250-300 mg/dL ([7]; after 3 weeks): 306 +/− 67 U/kg | Plasma Glucose ([7]; after 3 weeks): 282.4 ± 43.1 mg/dL | Body Weight ([7]; before (0 week)): 43.4 ± 2.2 g | Insulin Dose required to adjust plasma glucose to 250-300 mg/dL ([7]; before (0 week)): 548 +/− 18 U/kg | Plasma Glucose ([7]; before (0 week)): 736.5 ± 17.0 mg/dL | body weight increase ([7]; db/db mice, 3 weeks): increased body weight remarkably | plasma glucose lowering ([8]; GK rats, acute): decreased plasma glucose within 2 hours | Plasma Glucose, % of before ([8]; after 2 hour): (55.0 +/− 11.0) % | Plasma Glucose ([8]; after 2 hour, Compound J 50 mg/kg p.o., insulin 1.5 U/kg s.c.): 88.8 ± 16.8 mg/dL | Plasma Glucose ([8]; after 4 hours): 71.3 ± 20.9 mg/dL | Plasma Glucose, % of before ([8]; after 4 hours): (43.9 +/− 13.3) % | Plasma Glucose ([8]; after 6 hours): 90.7 ± 19.7 mg/dL | Plasma Glucose, % of before ([8]; after 6 hours): (55.4 +/− 12.4) % | Plasma Glucose ([8]; before (0 hour)): 163.7 ± 5.8 mg/dL | Plasma Glucose, % of before ([8]; before (0 hour)): (100.0 +/− 0.0) % | Body Weight ([9]; after 1 week): 57.9 ± 1.3 g | Insulin Dose required to achieve target blood glucose levels ([9]; after 1 week): 495 +/− 32 U/kg | Plasma Glucose ([9]; after 1 week, insulin adjusted daily, Compound J 0.2% food admixture): 408.8 ± 15.3 mg/dL | Body Weight ([9]; after 2 weeks): 59.7 ± 1.3 g | Insulin Dose required to achieve target blood glucose levels ([9]; after 2 weeks): 699 +/− 63 U/kg | Plasma Glucose ([9]; after 2 weeks): 447.7 ± 17.6 mg/dL | Body Weight ([9]; after 3 weeks): 61.4 ± 1.2 g | Insulin Dose required to achieve target blood glucose levels ([9]; after 3 weeks): 760 +/− 95 U/kg | Plasma Glucose ([9]; after 3 weeks): 396.3 ± 39.3 mg/dL | Body Weight ([9]; after 4 weeks): 64.2 ± 1.0 g | Insulin Dose required to achieve target blood glucose levels ([9]; after 4 weeks): 802 +/− 129 U/kg | Plasma Glucose ([9]; after 4 weeks): 316.7 ± 17.2 mg/dL | Body Weight ([9]; before (0 week)): 54.9 ± 1.4 g | Insulin Dose required to achieve target blood glucose levels ([9]; before (0 week)): 0 +/− 0 U/kg | Plasma Glucose ([9]; before (0 week)): 617.2 ± 28.1 mg/dL | body weight gain ([9]; db/db mice, 4 weeks of treatment): resulted in an increase in body weight
